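Interpolation was linear, between the two tested concentrations surrounding the appropriate level; five concentrations were tested over 48 hours in 96-well plates. At the TGI there is no net growth.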
Tests used:
Test in all cases: growth of human tumour cells (NCI), 48 h
OVCAR-8 ovarian = test system: OVCAR-8 ovarian
SK-OV-3 ovarian = test system: SK-OV-3 ovarian
SK-MEL-28 melanoma = test system: SK-MEL-28 melanoma
786-0 renal = test system: 786-0 renal
RXF 393 renal = test system: RXF 393 renal
HS 578T breast = test system: HS 578T breast
TK-10 renal = test system: TK-10 renal
UACC-62 melanoma = test system: UACC-62 melanoma
ACHN renal = test system: ACHN renal
OVCAR-4 ovarian = test system: OVCAR-4 ovarian
SR leukemia = test system: SR leukemia
NCI/ADR-RES ovarian = test system: NCI/ADR-RES ovarian
U251 CNS = test system: U251 CNS
MCF7 breast = test system: MCF7 breast
HOP-92 NSCLC = test system: HOP-92 NSCLC
UO-31 renal = test system: UO-31 renal
OVCAR-5 ovarian = test system: OVCAR-5 ovarian
SF-295 CNS = test system: SF-295 CNS
SN12C renal = test system: SN12C renal
HT29 colon = test system: HT29 colon
NCI-H226 lung = test system: NCI-H226 lung
BT-549 breast = test system: BT-549 breast
A498 renal = test system: A498 renal
SK-MEL-5 melanoma = test system: SK-MEL-5 melanoma
CAKI-1 renal = test system: CAKI-1 renal
SNB-75 CNS = test system: SNB-75 CNS
SF-268 CNS = test system: SF-268 CNS
COLO 205 colon = test system: COLO 205 colon
OVCAR-3 ovarian = test system: OVCAR-3 ovarian
T-47D breast = test system: T-47D breast
NCI-H23 lung = test system: NCI-H23 lung
HOP-62 NSCLC = test system: HOP-62 NSCLC
K-562 leukemia = test system: K-562 leukemia
HCT-15 colon = test system: HCT-15 colon
SK-MEL-2 melanoma = test system: SK-MEL-2 melanoma
UACC-257 melanoma = test system: UACC-257 melanoma
IGROV1 ovarian = test system: IGROV1 ovarian
MOLT-4 leukemia = test system: MOLT-4 leukemia
A549 NSCLC = test system: A549 NSCLC
MDA-MB-435 = test system: MDA-MB-435
PC-3 prostate = test system: PC-3 prostate
HCC-2998 colon = test system: HCC-2998 colon
NCI-H460 lung = test system: NCI-H460 lung
MDA-MB-231 breast = test system: MDA-MB-231 breast
MALME-3M melanoma = test system: MALME-3M melanoma
M14 melanoma = test system: M14 melanoma
SF-539 CNS = test system: SF-539 CNS
RPMI-8226 leukemia = test system: RPMI-8226 leukemia
CCRF-CEM leukemia = test system: CCRF-CEM leukemia
NCI-H522 lung = test system: NCI-H522 lung
SW-620 colon = test system: SW-620 colon
KM12 colon = test system: KM12 colon
DU-145 prostate = test system: DU-145 prostate
MDA-N = test system: MDA-N
HCT-116 colon = test system: HCT-116 colon
SNB-19 CNS = test system: SNB-19 CNS

Measured: TGI

FC(F)(Sc1ncc[nH]1)c1nc2ccccc2o1
not listed: SNB-19 CNS
> 100 µM: all other assays above

O=C1CC(=O)NC(=NNS(=O)(=O)c2ccccc2)N1
not listed: A498 renal
> 100 µM: all other assays above
